Legend:
[1] = test system: PPARγ phosphorylation at S273; type: cell-based, mouse; settings: 3T3-L1 differentiated adipocytes, in the presence of TNFα, compounds at 10 μM, Western blot with pSer273-specific antibody
[2] = molecular target: T1, GST-tagged PPARγ ligand-binding domain (PPARγ LBD) (Homo sapiens, UniProt P37231); experiment: In vitro competition binding assay
T1 sequence (P37231 238-503 limits assumed): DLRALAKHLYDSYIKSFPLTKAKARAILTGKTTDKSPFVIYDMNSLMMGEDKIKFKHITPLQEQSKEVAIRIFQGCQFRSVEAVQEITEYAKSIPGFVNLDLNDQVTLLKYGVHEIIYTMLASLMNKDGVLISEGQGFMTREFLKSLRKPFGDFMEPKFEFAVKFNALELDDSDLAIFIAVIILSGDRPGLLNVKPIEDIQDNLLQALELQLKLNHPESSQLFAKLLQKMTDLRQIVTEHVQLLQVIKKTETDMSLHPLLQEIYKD

[3] = molecular target: T1, GST-tagged PPARγ ligand-binding domain (PPARγ LBD); experiment: biochemical
3T3-L1 cells = experiment: Oil Red O staining of 3T3-L1 adipocyte differentiation; type: cell-based, mouse; settings: 3T3-L1 in differentiation media, compounds at 10 μM

Row | IC50 [2] | Ki [3] | SMILES | Inhibition of PPARγ S273 phosphorylation [1] | fold improvement in PPARγ binding potency compared to parental compound UHC1 ([2]; ratio of IC50 vs UHC1) | Adipocyte differentiation (Oil Red O staining of lipid droplets) (3T3-L1 cells)
1 | – | – | COc1cc(CNC(=O)c2ccc3c(c2)c(C)c(C)n3Cc2ccc(-c3ccccc3C(=O)O)cc2)ccc1O [Compound 2e, 4’-((5-((4-Hydroxy-3-methoxybenzyl)carbamoyl)-2,3-dimethyl-1H-indol-1-yl)methyl)-[1,1’-biphenyl]-2-carboxylic acid] | significantly inhibited | over 30 fold | –
2 | 325 nM | 254 nM | Cc1cc(C(=O)NCc2cccc(O)c2)ccc1NCc1ccc(-c2ccccc2C(=O)O)cc1 [Compound 5, 4’-(((4-((3-Hydroxybenzyl)carbamoyl)-2-methylphenyl)amino)methyl)-[1,1’-biphenyl]-2-carboxylic acid] | – | – | –
3 | – | – | Cc1c(C)n(Cc2ccc(-c3ccccc3C(=O)O)cc2)c2ccc(C(=O)NCc3cccnc3)cc12 [UHC1, reference compound] | significantly inhibited | – | significantly reduced Oil Red O staining

Reference: PMC7243741 (Bioorganic & medicinal chemistry letters, 2019)
